Literature values, collected in article PMC7395068, “The evolution of strategies to minimise the risk of human drug-induced liver injury (DILI) in drug discovery and development” (Archives of Toxicology, 2020).
Where two headings read alike, the source gives them in different places. *1 amine or outer side, *2 acyl side, *3 side chain or, on linkers, in order; H or OH if unused. Where a SMILES comes first, the peptide text is derived from it. Bridges are numbered along the chain shown (N, C = ends). Roman numbers before positions name the chains, in order. [ ]: non-standard residue; d: D form. Actinocin(9to1) = Cc1c2oc3c(C)ccc(C(=O)[*:1])c3nc-2c(C(=O)[*:2])c(N)c1=O; NMeV = CN[C@H](C(=O)O)C(C)C; Sar = CNCC(=O)O

Tests used:
[1] = cited from earlier work
[2] = cited from earlier work; remark: listed apart in the source
[3] = assignment in O'Brien 2006, ref O'Brien 2006

Molecule	In vivo DILI ([1]; in vivo)	In vivo DILI ([1]; […])	DILI +VE (5-8), DILI -VE (-4) ([2]; ref Chen 2016)	DILI severity category ([2]; ref Chen 2016)	other results
Cl.N [ammonium chloride]	-VE				DILI +VE (5-8), DILI -VE (-4) ([2]; in vivo): -VE; DILI severity category ([2]; in vivo): vNo-DILI-Concern
C[C@H]1[C@H](NC(=O)/C(=N\OC(C)(C)C(=O)O)c2csc(N)n2)C(=O)N1S(=O)(=O)O [aztreonam]	-VE				DILI +VE (5-8), DILI -VE (-4) ([2]; in vivo): -VE; DILI severity category ([2]; in vivo): Ambiguous DILI-concern
Oc1ccc2c(c1)[C@@]13CCCC[C@@]1(O)[C@@H](C2)N(CC1CCC1)CC3 [butorphanol]		-VE	-VE	vNo-DILI-Concern	
CCN1CCN(C(=O)N[C@@H](C(=O)N[C@@H]2C(=O)N3C(C(=O)O)=C(CSc4nnnn4C)CS[C@H]23)c2ccc(O)cc2)C(=O)C1=O [cefoperazone]	-VE				DILI +VE (5-8), DILI -VE (-4) ([2]; in vivo): +VE; DILI severity category ([2]; in vivo): vLess-DILI-Concern
CO/N=C(\C(=O)N[C@@H]1C(=O)N2C(C(=O)O)=C(CSc3nc(=O)c(=O)[nH]n3C)CS[C@H]12)c1csc(N)n1 [ceftriaxone]		-VE	+VE	vLess-DILI-Concern	
O=C(N[C@H](CO)[C@H](O)c1ccc([N+](=O)[O-])cc1)C(Cl)Cl [chloramphenicol]	+VE				DILI +VE (5-8), DILI -VE (-4) ([2]; in vivo): -VE; DILI severity category ([2]; in vivo): vNo-DILI-Concern
O=C1CCc2cc(OCCCCc3nnnn3C3CCCCC3)ccc2N1 [cilostazol]		-VE	-VE	Ambiguous DILI-concern	
Cc1c2oc3c(C)ccc(C(=O)N[C@@H]4C(=O)N[C@H](C(C)C)C(=O)N5CCC[C@H]5C(=O)N(C)CC(=O)N(C)[C@@H](C(C)C)C(=O)O[C@@H]4C)c3nc-2c(C(=O)N[C@@H]2C(=O)N[C@H](C(C)C)C(=O)N3CCC[C@H]3C(=O)N(C)CC(=O)N(C)[C@@H](C(C)C)C(=O)O[C@@H]2C)c(N)c1=O [dactinomycin] (I: T[dV]P[Sar][NMeV] / II: T[dV]P[Sar][NMeV]; ester I:1-I:C, II:1-II:C; linker I:N-II:N via Actinocin(9to1))	+VE				DILI +VE (5-8), DILI -VE (-4) ([2]; in vivo): +VE; DILI severity category ([2]; in vivo): vMost-DILI-Concern
CN(CCOc1ccc(NS(C)(=O)=O)cc1)CCc1ccc(NS(C)(=O)=O)cc1 [dofetilide]	-VE				DILI +VE (5-8), DILI -VE (-4) ([2]; in vivo): -VE; DILI severity category ([2]; in vivo): vNo-DILI-Concern
C[C@]12CC[C@@H]3c4ccc(O)cc4CC[C@H]3[C@@H]1CCC2=O [estrone]	+VE				DILI +VE (5-8), DILI -VE (-4) ([2]; in vivo): -VE; DILI severity category ([2]; in vivo): Ambiguous DILI-concern
CC(O)(P(=O)(O)O)P(=O)(O)O [etidronic acid]		-VE	-VE	vNo-DILI-Concern	
CC(C)n1c(/C=C/C(O)CC(O)CC(=O)O)c(-c2ccc(F)cc2)c2ccccc21 (centres unmarked) [fluvastatin]			+VE	vLess-DILI-Concern	In vivo DILI ([1]; ref O'Brien 2006): -VE; In vivo DILI ([1]; ref Xu 2008): -VE
Nc1nnc(-c2cccc(Cl)c2Cl)c(N)n1 [lamotrigine]		+VE	+VE	vMost-DILI-Concern	
Cc1cccc(CN2CCN(C(c3ccccc3)c3ccc(Cl)cc3)CC2)c1 (centres unmarked) [meclizine]		-VE	-VE	vNo-DILI-Concern	
CCOC(=O)C1(c2ccccc2)CCN(C)CC1 [meperidine]	-VE				DILI +VE (5-8), DILI -VE (-4) ([2]; in vivo): -VE; DILI severity category ([2]; in vivo): vNo-DILI-Concern
Cc1cccc(C)c1NC(=O)C1CCCCN1C (centres unmarked) [mepivacaine]		-VE	-VE	vNo-DILI-Concern	
C[C@@H](O)[C@H]1C(=O)N2C(C(=O)O)=C(S[C@@H]3CN[C@H](C(=O)N(C)C)C3)[C@H](C)[C@H]12 [meropenem]		+VE	+VE	vLess-DILI-Concern	
CN[C@@H](C)Cc1ccccc1 [methamphetamine]		-VE	-VE	vNo-DILI-Concern	
COc1ccccc1OCC(O)COC(N)=O (centres unmarked) [methocarbamol]		-VE	-VE	Ambiguous DILI-concern	
C[C@](N)(Cc1ccc(O)cc1)C(=O)O [metyrosine]		-VE	-VE	vNo-DILI-Concern	
COc1ccc(OC)c(C(O)CNC(=O)CN)c1 (centres unmarked) [midodrine]		-VE	-VE	vNo-DILI-Concern	
NC(=O)C[S+]([O-])C(c1ccccc1)c1ccccc1 (centres unmarked) [modafinil]		-VE	+VE	vLess-DILI-Concern	
CC(C)[C@H]1CC[C@H](C(=O)N[C@H](Cc2ccccc2)C(=O)O)CC1 [nateglinide]		-VE	-VE	Ambiguous DILI-concern	
CC1(C)NC(=O)N(c2ccc([N+](=O)[O-])c(C(F)(F)F)c2)C1=O [nilutamide]		+VE	+VE	vMost-DILI-Concern	
CC1COc2c(N3CCN(C)CC3)c(F)cc3c(=O)c(C(=O)O)cn1c23 (centres unmarked) [ofloxacin]	+VE				DILI +VE (5-8), DILI -VE (-4) ([2]; in vivo): +VE; DILI severity category ([2]; in vivo): vLess-DILI-Concern
COc1ccc2[nH]c([S+]([O-])Cc3ncc(C)c(OC)c3C)nc2c1 (centres unmarked) [omeprazole]		-VE	+VE	vLess-DILI-Concern	

Molecule	In vivo DILI ([1]; in vivo)	In vivo DILI ([1]; […])	DILI +VE (5-8), DILI -VE (-4) ([2]; ref Chen 2016)	DILI severity category ([2]; ref Chen 2016)	other results
CN1CC[C@]23c4c5ccc(O)c4O[C@H]2C(=O)CC[C@@]3(O)[C@H]1C5 [oxymorphone]		-VE	-VE	vNo-DILI-Concern	
CCCCC1C(=O)N(c2ccccc2)N(c2ccc(O)cc2)C1=O (centres unmarked) [oxyphenbutazone]		+VE			
CC(=O)O[C@H]1C(=O)[C@@]2(C)[C@H]([C@H](OC(=O)c3ccccc3)[C@]3(O)C[C@H](OC(=O)[C@H](O)[C@@H](NC(=O)c4ccccc4)c4ccccc4)C(C)=C1C3(C)C)[C@]1(OC(C)=O)CO[C@@H]1C[C@@H]2O [paclitaxel]			+VE	vLess-DILI-Concern	In vivo DILI ([1]; ref O'Brien 2006): +VE; In vivo DILI ([1]; ref Persson 2013): +VE
NC1=NC(=O)C(c2ccccc2)O1 (centres unmarked) [pemoline]	+VE				DILI +VE (5-8), DILI -VE (-4) ([2]; in vivo): +VE; DILI severity category ([2]; in vivo): vMost-DILI-Concern
C[C@H]1[C@H](c2ccccc2)OCCN1C [phendimetrazine]		-VE	-VE	vNo-DILI-Concern	
CC(C)(N)Cc1ccccc1 [phentermine]		-VE	+VE	vLess-DILI-Concern	
CC(N)C(O)c1ccccc1 (centres unmarked) [phenylpropanolamine]	-VE				
CCN(CC)CCNC(=O)c1ccc(N)cc1 [procainamide]	+VE				DILI +VE (5-8), DILI -VE (-4) ([2]; in vivo): +VE; DILI severity category ([2]; in vivo): vLess-DILI-Concern
CNNCc1ccc(C(=O)NC(C)C)cc1 [procarbazine]	+VE				DILI +VE (5-8), DILI -VE (-4) ([2]; in vivo): +VE; DILI severity category ([2]; in vivo): vLess-DILI-Concern
COc1ccc(CN(CCN(C)C)c2ccccn2)cc1 [pyrilamine]		-VE			
O=P(O)(O)C(O)(Cc1cccnc1)P(=O)(O)O [risedronate]		-VE	-VE	Ambiguous DILI-concern	
CC(C)[C@@]1(O)[C@@H](OC(=O)c2ccc[nH]2)[C@@]2(O)[C@@]3(C)C[C@]4(O)O[C@@]5([C@H](O)[C@@H](C)CC[C@]35O)[C@@]2(O)[C@@]14C [ryanodine]					In vivo DILI [1, 3]: +VE
C#CCN(C)[C@H](C)Cc1ccccc1 [selegiline]	-VE				DILI +VE (5-8), DILI -VE (-4) ([2]; in vivo): -VE; DILI severity category ([2]; in vivo): vNo-DILI-Concern
[Na+].[OH-] [sodium hydroxide]					In vivo DILI [1, 3]: +VE
COc1ncnc(NS(=O)(=O)c2ccc(N)cc2)c1OC [sulfadoxine]		-VE			
C[C@H](CCC(=O)NCCS(=O)(=O)O)[C@H]1CC[C@H]2[C@@H]3[C@H](O)C[C@@H]4C[C@H](O)CC[C@]4(C)[C@H]3C[C@H](O)[C@]12C [taurocholic]					In vivo DILI [1, 3]: +VE
C[C@H](CCC(=O)NCCS(=O)(=O)O)[C@H]1CC[C@H]2[C@@H]3CC[C@@H]4C[C@H](O)CC[C@]4(C)[C@H]3C[C@H](O)[C@]12C [taurodeoycholic]					In vivo DILI [1, 3]: +VE
C[C@H](CCC(=O)NCCS(=O)(=O)O)[C@H]1CC[C@H]2[C@@H]3CC[C@@H]4C[C@H](O)CC[C@]4(C)[C@H]3CC[C@]12C [taurolithocholic]					In vivo DILI [1, 3]: +VE
COc1cc2nc(N3CCN(C(=O)C4CCCO4)CC3)nc(N)c2cc1OC (centres unmarked) [terazosin]		-VE	-VE	vNo-DILI-Concern	In vivo DILI ([1]; ref Aleo 2019): -VE
C[C@]12CC[C@H]3[C@@H](CCC4=CC(=O)CC[C@@]43C)[C@@H]1CC[C@@H]2O [testosterone]	-VE				DILI +VE (5-8), DILI -VE (-4) ([2]; in vivo): +VE; DILI severity category ([2]; in vivo): vMost-DILI-Concern
C[N+]1(C)[C@@H]2C[C@@H](OC(=O)C(O)(c3cccs3)c3cccs3)C[C@H]1[C@@H]1O[C@@H]12 [tiotropium]	-VE				
Cc1cccc(Nc2ccncc2S(=O)(=O)NC(=O)NC(C)C)c1 [torasemide]		-VE	-VE	Ambiguous DILI-concern	
C[C@]12C=CC(=O)C=C1CC[C@H]1[C@@H]3C[C@@H](O)[C@](O)(C(=O)CO)[C@@]3(C)C[C@H](O)[C@@]12F [triamcinolone]		-VE			
ClC=C(Cl)Cl [trichloroethylene]					In vivo DILI [1, 3]: +VE
dichloroethylene					In vivo DILI [1, 3]: +VE
hemin		-VE			
